Assay results reported in patent publication US20230079714A1, “1-AMINO-1-CYCLOPROPANECARBOXYLIC ACID FOR THINNING OF FRUITS” (priority 2021, published 2023).

Key:
Format in all cases: in vivo
[1] = test system: nectarine trees; assay: Thinning trials Greece, Italy and Spain 2020, fruit set, nectarine sites; details: pink bud stage
Procedure: Thinning trials were conducted Greece, Italy and Spain in 2020. Specifically, 1-amino-1-cyclopropanecarboxylic acid was prepared at 200, 300, 400, 500, 800 and 1,000 ppm ACC solutions. These solutions were applied as a foliar spray to peach trees (i.e. […]

[2] = test system: plum trees (Candy Stripe and Black Majesty); assay: Plum tree thinning trial, fruit set (Chile, 2020); details: for % Fruit Set 'Black Majesty': Black Majesty plum; for % Fruit set 'Candy Stripe': Candy Stripe plum; for % Fruit Set (Avg): average of two varieties; for reduced fruit set on average over control: white bud stage, vs untreated control
Procedure: Thinning trials were conducted Chile in 2020. Specifically, 1-amino-1-cyclopropanecarboxylic acid was prepared at 300 and 450 ppm ACC solutions. These solutions were applied as a foliar spray to two separate varieties of plum trees (i.e. Candy Stripe and Black Majesty) at the white bud stage, the full bloom stage or the petal fall stage. […] Thinning activity is expressed as fruit set (the number of large fruit per 100 flowers).

[3] = test system: peach trees; assay: Thinning trials Greece, Italy and Spain 2020, fruit set, peach sites; details: pink bud stage
Procedure: (§1) Thinning trials were conducted Greece, Italy and Spain in 2020. Specifically, 1-amino-1-cyclopropanecarboxylic acid was prepared at 200, 300, 400, 500, 800 and 1,000 ppm ACC solutions. These solutions were applied as a foliar spray to peach trees (i.e. Spain North, Spain South #1 and Greece #2) and nectarine trees (i.e. Spain South #1 and Greece #1) at pink bud stage. […] Thinning activity is expressed as fruit set (the number of large fruit per 100 flowers).

[4] = test system: GlenGlo Peach trees; assay: Peach tree thinning trial, fruit set (Coloma, Mich., 2018); details: for reduced fruit set over control: pink bud stage, vs surfactant only control
Procedure: (§2) Thinning trials were conducted in Coloma, Mich. in May 2018. Specifically, 1-amino-1-cyclopropanecarboxylic acid was prepared at 300 and 600 ppm ACC solutions with 0.05% 2-butoxyethanol, poloxalene, monopropylene glycol as a surfactant. These solutions were applied as a foliar spray to GlenGlo Peach trees at pink bud stage, full bloom and after petal fall. Three one year-old shoots were flagged for each treatment on eight replicate trees. Fruit and defoliation were evaluated four weeks after bloom applications and two weeks after the post-petal fall application. […] Thinning activity is expressed as fruit set (the number of large fruit per 100 flowers).

[5] = test system: GlenGlo Peach trees; assay: Peach tree thinning trial, foliage quality rating; details: for Foliage Rating: 1 is the best and 3 is the worst
Procedure: as §2

[6] = test system: peach and nectarine trees; assay: Thinning trials Greece, Italy and Spain 2020, fruit set, Italy site and average of all sites; details: pink bud stage; for % Fruit Set (Avg): average of sites; for reduced fruit set on average over control: vs untreated control
Procedure: as §1

Foliage Rating ([5]; 300 ppm ACC, After Petal Fall): 1.86
Foliage Rating ([5]; 300 ppm ACC, Full Bloom): 2.10
Foliage Rating ([5]; 300 ppm ACC, Pink Bud Stage): 1.52
Foliage Rating ([5]; 600 ppm ACC, After Petal Fall): 1.90
Foliage Rating ([5]; 600 ppm ACC, Full Bloom): 2.67
Foliage Rating ([5]; 600 ppm ACC, Pink Bud Stage): 1.95
SMILES: NC1(C(=O)O)CC1 [ACC, 1-amino-1-cyclopropanecarboxylic acid]
% Fruit Set (Greece #1) ([1]; 200 ppm ACC): 37%
% Fruit Set (Spain South #2) ([1]; 200 ppm ACC): 55%
% Fruit Set (Greece #1) ([1]; 300 ppm ACC): 32%
% Fruit Set (Spain South #2) ([1]; 300 ppm ACC): 55%
% Fruit Set (Greece #1) ([1]; 400 ppm ACC): 28%
% Fruit Set (Spain South #2) ([1]; 400 ppm ACC): 48%
% Fruit Set (Greece #1) ([1]; 500 ppm ACC): 25%
% Fruit Set (Spain South #2) ([1]; 500 ppm ACC): 45%
% Fruit Set (Greece #1) ([1]; 800 ppm ACC): 19%
% Fruit Set (Spain South #2) ([1]; 800 ppm ACC): 37%
% Fruit Set (Greece #1) ([1]; 1,000 ppm ACC): 16%
% Fruit Set (Spain South #2) ([1]; 1,000 ppm ACC): 37%
% Fruit Set 'Black Majesty' ([2]; 300 ppm ACC, Full Bloom Stage): 9%
% Fruit set 'Candy Stripe' ([2]; 300 ppm ACC, Full Bloom Stage): 4%
% Fruit Set (Avg) ([2]; 300 ppm ACC, Full Bloom Stage): 6.5%
% Fruit Set 'Black Majesty' ([2]; 300 ppm ACC, Petal Fall Stage): 8%
% Fruit set 'Candy Stripe' ([2]; 300 ppm ACC, Petal Fall Stage): 5%
% Fruit Set (Avg) ([2]; 300 ppm ACC, Petal Fall Stage): 6.5%
% Fruit Set 'Black Majesty' ([2]; 300 ppm ACC, White Bud Stage): 4%
% Fruit set 'Candy Stripe' ([2]; 300 ppm ACC, White Bud Stage): 1%
% Fruit Set (Avg) ([2]; 300 ppm ACC, White Bud Stage): 2.5%
reduced fruit set on average over control ([2]; 300 ppm): 21.5%
% Fruit Set 'Black Majesty' ([2]; 450 ppm ACC, Full Bloom Stage): 9%
% Fruit set 'Candy Stripe' ([2]; 450 ppm ACC, Full Bloom Stage): 4%
% Fruit Set (Avg) ([2]; 450 ppm ACC, Full Bloom Stage): 6.5%
% Fruit Set 'Black Majesty' ([2]; 450 ppm ACC, Petal Fall Stage): 8%
% Fruit set 'Candy Stripe' ([2]; 450 ppm ACC, Petal Fall Stage): 3%
% Fruit Set (Avg) ([2]; 450 ppm ACC, Petal Fall Stage): 5.5%
% Fruit Set 'Black Majesty' ([2]; 450 ppm ACC, White Bud Stage): 5%
% Fruit set 'Candy Stripe' ([2]; 450 ppm ACC, White Bud Stage): 1%
% Fruit Set (Avg) ([2]; 450 ppm ACC, White Bud Stage): 3%
reduced fruit set on average over control ([2]; 450 ppm): 21%
% Fruit Set (Greece #2) ([3]; 200 ppm ACC): 33%
% Fruit Set (Spain North) ([3]; 200 ppm ACC): 50%
% Fruit Set (Spain South#1) ([3]; 200 ppm ACC): 55%
% Fruit Set (Greece #2) ([3]; 300 ppm ACC): 32%
% Fruit Set (Spain North) ([3]; 300 ppm ACC): 44%
% Fruit Set (Spain South#1) ([3]; 300 ppm ACC): 46%
% Fruit Set (Greece #2) ([3]; 400 ppm ACC): 28%
% Fruit Set (Spain North) ([3]; 400 ppm ACC): 33%
% Fruit Set (Spain South#1) ([3]; 400 ppm ACC): 39%
% Fruit Set (Greece #2) ([3]; 500 ppm ACC): 28%
% Fruit Set (Spain North) ([3]; 500 ppm ACC): 25%
% Fruit Set (Spain South#1) ([3]; 500 ppm ACC): 42%
% Fruit Set (Greece #2) ([3]; 800 ppm ACC): 23%
% Fruit Set (Spain North) ([3]; 800 ppm ACC): 7%
% Fruit Set (Spain South#1) ([3]; 800 ppm ACC): 31%
% Fruit Set (Greece #2) ([3]; 1,000 ppm ACC): 21%
% Fruit Set (Spain North) ([3]; 1,000 ppm ACC): 7%
% Fruit Set (Spain South#1) ([3]; 1,000 ppm ACC): 32%
% Fruit Set ([4]; 300 ppm ACC foliar spray, After Petal Fall): 57%
% Fruit Set ([4]; 300 ppm ACC foliar spray, Full Bloom): 10%
% Fruit Set ([4]; 300 ppm ACC foliar spray, Pink Bud Stage): 10%
reduced fruit set over control ([4]; 300 ppm): 310%
% Fruit Set ([4]; 600 ppm ACC foliar spray, After Petal Fall): 45%
% Fruit Set ([4]; 600 ppm ACC foliar spray, Full Bloom): 1%
% Fruit Set ([4]; 600 ppm ACC foliar spray, Pink Bud Stage): 6%
reduced fruit set over control ([4]; 600 ppm): 583%
thinning activity ([4]; application after petal fall): did not provide effective thinning activity
foliage quality ([5]; application at the pink bud stage): did not significantly reduce foliage quality
% Fruit Set (Italy) ([6]; 200 ppm ACC): 33%
% Fruit Set (Avg) ([6]; 200 ppm ACC): 44%
reduced fruit set on average over control ([6]; 200 ppm): 18%
% Fruit Set (Italy) ([6]; 300 ppm ACC): 32%
% Fruit Set (Avg) ([6]; 300 ppm ACC): 40%
reduced fruit set on average over control ([6]; 300 ppm): 30%
% Fruit Set (Italy) ([6]; 400 ppm ACC): 34%
% Fruit Set (Avg) ([6]; 400 ppm ACC): 35%
reduced fruit set on average over control ([6]; 400 ppm): 49%
% Fruit Set (Italy) ([6]; 500 ppm ACC): 32%
% Fruit Set (Avg) ([6]; 500 ppm ACC): 33%
reduced fruit set on average over control ([6]; 500 ppm): 58%
% Fruit Set (Italy) ([6]; 800 ppm ACC): 32%
% Fruit Set (Avg) ([6]; 800 ppm ACC): 25%
reduced fruit set on average over control ([6]; 800 ppm): 108%
% Fruit Set (Italy) ([6]; 1,000 ppm ACC): 31%
% Fruit Set (Avg) ([6]; 1,000 ppm ACC): 24%
reduced fruit set on average over control ([6]; 1,000 ppm): 117%
